Assay results from ChEMBL document CHEMBL1124318, “Quinazoline antifolates inhibiting thymidylate synthase: synthesis of four oligo(L-gamma-glutamyl) conjugates of N10-propargyl-5,8-dideazafolic acid and their enzyme inhibition” (J Med Chem, 1989).

Each molecule was assayed against T1, Thymidylate synthase (Homo sapiens, UniProt P04818) (assay: Compound was tested for inhibition of human (WI-L2) thymidylate synthase). Conditions: read-out: Ki app.
Target sequence in this assay (P04818 whole entry): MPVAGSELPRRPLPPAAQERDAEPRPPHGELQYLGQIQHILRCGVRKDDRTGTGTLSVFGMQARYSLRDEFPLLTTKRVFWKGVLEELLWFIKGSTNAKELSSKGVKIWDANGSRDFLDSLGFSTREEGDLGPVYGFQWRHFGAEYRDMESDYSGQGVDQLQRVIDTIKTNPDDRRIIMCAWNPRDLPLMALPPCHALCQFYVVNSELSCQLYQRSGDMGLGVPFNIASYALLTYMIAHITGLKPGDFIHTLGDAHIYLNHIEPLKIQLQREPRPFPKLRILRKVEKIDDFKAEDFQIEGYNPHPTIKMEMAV

Structure (SMILES) | Ki [nM]
C#CCN(Cc1ccc2nc(N)[nH]c(=O)c2c1)c1ccc(C(=O)NC(CCC(=O)NC(CCC(=O)O)C(=O)O)C(=O)O)cc1 (stereo not drawn) | 0.224
C#CCN(Cc1ccc2nc(N)[nH]c(=O)c2c1)c1ccc(C(=O)NC(CCC(=O)NC(CCC(=O)NC(CCC(=O)NC(CCC(=O)O)C(=O)O)C(=O)O)C(=O)O)C(=O)O)cc1 (stereo not drawn) | 0.041

Further lines, results first:

Ki [nM] | Structure (SMILES)
0.042 | C#CCN(Cc1ccc2nc(N)[nH]c(=O)c2c1)c1ccc(C(=O)NC(CCC(=O)NC(CCC(=O)NC(CCC(=O)NC(CCC(=O)NC(CCC(=O)O)C(=O)O)C(=O)O)C(=O)O)C(=O)O)C(=O)O)cc1 (stereo not drawn)
0.072 | C#CCN(Cc1ccc2nc(N)nc(O)c2c1)c1ccc(C(=O)NC(CCC(=O)NC(CCC(=O)NC(CCC(=O)O)C(=O)O)C(=O)O)C(=O)O)cc1 (stereo not drawn)

What follows are molecules tested against T1, Thymidylate synthase (assay: Fold increase of inhibition of human thymidylate synthase from that of control). Conditions: not given.
Target sequence in this assay (P04818 2-313 limits assumed): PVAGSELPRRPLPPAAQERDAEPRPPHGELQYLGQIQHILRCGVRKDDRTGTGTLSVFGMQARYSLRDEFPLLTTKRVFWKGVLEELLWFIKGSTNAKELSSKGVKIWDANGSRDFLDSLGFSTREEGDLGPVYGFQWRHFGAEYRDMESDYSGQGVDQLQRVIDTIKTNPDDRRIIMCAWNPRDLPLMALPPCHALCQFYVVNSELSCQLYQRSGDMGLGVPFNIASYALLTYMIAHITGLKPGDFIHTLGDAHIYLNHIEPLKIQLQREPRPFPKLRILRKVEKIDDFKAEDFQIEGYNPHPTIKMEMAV

Fold increase | Structure (SMILES)
97 | C#CCN(Cc1ccc2nc(N)nc(O)c2c1)c1ccc(C(=O)NC(CCC(=O)NC(CCC(=O)NC(CCC(=O)O)C(=O)O)C(=O)O)C(=O)O)cc1 (stereo not drawn)
167 | C#CCN(Cc1ccc2nc(N)nc(O)c2c1)c1ccc(C(=O)NC(CCC(=O)NC(CCC(=O)NC(CCC(=O)NC(CCC(=O)NC(CCC(=O)O)C(=O)O)C(=O)O)C(=O)O)C(=O)O)C(=O)O)cc1 (stereo not drawn)
31 | C#CCN(Cc1ccc2nc(N)nc(O)c2c1)c1ccc(C(=O)NC(CCC(=O)NC(CCC(=O)O)C(=O)O)C(=O)O)cc1 (stereo not drawn)

Structure (SMILES) | Fold increase
C#CCN(Cc1ccc2nc(N)nc(O)c2c1)c1ccc(C(=O)NC(CCC(=O)NC(CCC(=O)NC(CCC(=O)NC(CCC(=O)O)C(=O)O)C(=O)O)C(=O)O)C(=O)O)cc1 (stereo not drawn) | 171
